# Test results reported in patent publication US12485122B2, “Combination of palbociclib and adagrasib for lung cancer” (Mirati Therapeutics, Inc., priority 2018, dated 2025).
# Experiments:
# Format in all cases: in vivo, nude/nude mice
# SW1573 cells = assay: SW1573 tumor bearing mice, single agents and combination; conditions: for tumor growth inhibition: Day 28, single agent, Compound 478 100 mg/kg or palbociclib 130 mg/kg p.o. daily; for Average Tumor Volume: Compound 478 100 mg/kg, palbociclib 130 mg/kg, 7 mice averaged
# Experimental: (§1) Immunocompromised nude/nude mice were inoculated in the right hind flank with cells or patient derived tumor samples harboring a KRas G12C mutation. When tumor volumes reached between 200-400 mm^3 in size, the mice were divided into four groups of 5-12 mice each. The first group was administered vehicle only. […] The fourth group was administered the single agent dose of the KRas G12C inhibitor in combination with the single agent dose of the CDK 4/6 inhibitor. […] Tumor volumes were measured using a caliper every two-three days and tumor volumes are calculated by the formula: […].
# For example, 28 nude/nude mice were inoculated in the right hind limb with 5×10^6 SW1573 cells.
# H2122 cells = assay: H2122 tumor bearing mice, single agents and combination; conditions: for tumor growth inhibition: Day 23, single agent, Compound 478 100 mg/kg or palbociclib 130 mg/kg p.o. daily; for Average Tumor Volume: Compound 478 100 mg/kg, palbociclib 130 mg/kg, 5 mice averaged
# Experimental: as §1
# Similarly, 20 nude/nude mice were inoculated in the right hind limb with 5×10^6 H2122 cells.
# LU6405 cells = assay: LU6405 tumor bearing mice, single agents and combination; conditions: for Average Tumor Volume: Compound 478 100 mg/kg, palbociclib 130 mg/kg, 5 mice averaged
# Experimental: as §1
# In another experiment, on Day 0, 20 nude/nude mice were inoculated in the right hind limb with 5×10^6 LU6405 cells.
# [1] = Study Day 23, p.o. daily for 21 days
# [2] = Study Day 22, p.o. daily for 21 days
# [3] = Study Day 24, p.o. daily for 21 days
SMILES,tumor growth inhibition (SW1573 cells) [%],"Average Tumor Volume (SW1573 cells; Study Day 0, p.o. daily) [mm^3]","Average Tumor Volume (SW1573 cells; Study Day 6, p.o. daily) [mm^3]","Average Tumor Volume (SW1573 cells; Study Day 9, p.o. daily) [mm^3]","Average Tumor Volume (SW1573 cells; Study Day 14, p.o. daily) [mm^3]","Average Tumor Volume (SW1573 cells; Study Day 16, p.o. daily) [mm^3]","Average Tumor Volume (SW1573 cells; Study Day 18, p.o. daily) [mm^3]","Average Tumor Volume (SW1573 cells; Study Day 21, p.o. daily) [mm^3]","Average Tumor Volume (SW1573 cells; Study Day 23, p.o. daily) [mm^3]","Average Tumor Volume (SW1573 cells; Study Day 25, p.o. daily) [mm^3]","Average Tumor Volume (SW1573 cells; Study Day 28, p.o. daily) [mm^3]",tumor growth inhibition (H2122 cells) [%],"Average Tumor Volume (H2122 cells; Study Day 0, p.o. daily) [mm^3]","Average Tumor Volume (H2122 cells; Study Day 2, p.o. daily) [mm^3]","Average Tumor Volume (H2122 cells; Study Day 4, p.o. daily) [mm^3]","Average Tumor Volume (H2122 cells; Study Day 7, p.o. daily) [mm^3]","Average Tumor Volume (H2122 cells; Study Day 9, p.o. daily) [mm^3]","Average Tumor Volume (H2122 cells; Study Day 11, p.o. daily) [mm^3]","Average Tumor Volume (H2122 cells; Study Day 14, p.o. daily) [mm^3]","Average Tumor Volume (H2122 cells; Study Day 16, p.o. daily) [mm^3]",other results
C=C(F)C(=O)N1CCN(c2nc(OC[C@@H]3CCCN3C)nc3c2CCN(c2cccc4cccc(Cl)c24)C3)C[C@@H]1CC#N [Compound 478],71,357,404,435,523,575,607,754,758,741,785,85,325,340,338,381,462,480,493,541,"Average Tumor Volume (H2122 cells; Study Day 18, p.o. daily): 537 mm^3; Average Tumor Volume (H2122 cells; Study Day 21, p.o. daily): 547 mm^3; Average Tumor Volume (H2122 cells; [1]): 547 mm^3; tumor growth inhibition (LU6405 cells; Day 24, single agent, Compound 478 100 mg/kg p.o. daily): 96%; Average Tumor Volume (LU6405 cells; Study Day 1, p.o. daily): 256.06 mm^3; Average Tumor Volume (LU6405 cells; Study Day 4, p.o. daily): 308.98 mm^3; Average Tumor Volume (LU6405 cells; Study Day 8, p.o. daily): 324.46 mm^3; Average Tumor Volume (LU6405 cells; Study Day 11, p.o. daily): 329.09 mm^3; Average Tumor Volume (LU6405 cells; Study Day 15, p.o. daily): 310.21 mm^3; Average Tumor Volume (LU6405 cells; Study Day 18, p.o. daily): 290.88 mm^3; Average Tumor Volume (LU6405 cells; [2]): 257.34 mm^3; Average Tumor Volume (LU6405 cells; [3]): 249.19 mm^3"
"CC(=O)c1c(C)c2cnc(Nc3ccc(N4CCNCC4)cn3)nc2n(C2CCCC2)c1=O [Palbociclib, 6-acetyl-8-cyclopentyl-5-methyl-2-((5-(piperazin-1-yl)pyridin-2-yl)amino)pyrido[2,3-d]pyrimidin-7(8H)-one]",40,356,484,508,748,807,706,926,1029,1167,1240,65,326,385,493,601,646,663,748,765,"Average Tumor Volume (SW1573 cells; Study Day 3, p.o. daily): 444 mm^3; Average Tumor Volume (SW1573 cells; Study Day 11, p.o. daily): 515 mm^3; Average Tumor Volume (H2122 cells; Study Day 18, p.o. daily): 790 mm^3; Average Tumor Volume (H2122 cells; Study Day 21, p.o. daily): 836 mm^3; Average Tumor Volume (H2122 cells; [1]): 834 mm^3; Average Tumor Volume (LU6405 cells; Study Day 1, p.o. daily): 255.36 mm^3; Average Tumor Volume (LU6405 cells; Study Day 4, p.o. daily): 440.79 mm^3; Average Tumor Volume (LU6405 cells; Study Day 8, p.o. daily): 659.01 mm^3; Average Tumor Volume (LU6405 cells; Study Day 11, p.o. daily): 834.95 mm^3; Average Tumor Volume (LU6405 cells; Study Day 15, p.o. daily): 1165.80 mm^3; Average Tumor Volume (LU6405 cells; Study Day 18, p.o. daily): 1295.57 mm^3; Average Tumor Volume (LU6405 cells; [2]): 1363.40 mm^3; Average Tumor Volume (LU6405 cells; [3]): 1382.59 mm^3"
